# The source made the active and inactive calls.
# Columns and labels:
# Protein S100-A4 = Protein S100-A4 (Homo sapiens, UniProt P26447); assay: S100A4-myosin IIA binding inhibitor potency, dose response, biochemical, fluorescence polarization, cherry-picked hits (AID 687001); format: functional
# Nonstructural protein 1 = Nonstructural protein 1 (Influenza A virus, UniProt Q194T2); format: functional, Influenza A virus (A/California/07/2009(H1N1))
# INS1 = assay: beta cell apoptosis inhibitors, cytokine rescue, dose response, luminescence, retest (AID 449756); format: functional, cell-based; conditions: Rattus norvegicus;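 note: cell death triggered by IL-1 beta plus TNF-alpha plus IFN-gamma mixture; protective hits raise ATP signal compared with cytokine alone wells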
# [1] = HepG2 cell cytotoxicity, dose response, cytotoxicity control for Shn3 inhibitor project, CellTiter-Glo, cherry-picked (AID 624134); format: functional, cell-based
# [2] = control 3'UTR Renilla luciferase suppression, dose response, counter-screen for Shn3 inhibitor project, cell-based, Clone20-Shn3RL, cherry-picked (AID 624133); format: functional
# [3] = inhibitors of intracellular T. cruzi replication, confirmation, NIH3T3 host cells, beta-gal luminescence (AID 2044); format: functional, cell-based;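 note: intracellular parasites grown in NIH/3T3 mouse fibroblasts as host cells; luminescent beta-galactosidase reporter signal from transgenic T. cruzi replicating inside host cells; inhibitors lower the luminescence signal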
# [4] = Shn3 3'UTR reporter inhibitors, dose response, cell-based, Clone20 osteoblasts, firefly luciferase, cherry-picked (AID 624132); format: functional;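 note: firefly luciferase luminescence from reporter carrying the Shn3 3'UTR in osteoblasts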
# [5] = cytotoxicity toward NIH3T3 fibroblasts, dose response, counter-screen, cell-based, ATP luminescence, mouse fibroblasts (AID 2010); format: functional;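 note: cells exposed to compound for about 90 hours before reading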
# [6] = target: Long-chain-fatty-acid--AMP ligase FadD28 (Mycobacterium tuberculosis, UniProt P9WQ59); assay: Fluorescence polarization aasay to screen for inhibitors that compete for the binding of FadD28 to a bisubstrate Measured in Biochemical System Using Plate Reader - 2147-01_Inhibitor_Dose_CherryPick_Activity.; format: functional, Mycobacterium tuberculosis H37Rv
# [7] = target: ADP-ribosylation factor GTPase-activating protein 1 (Rattus norvegicus, UniProt Q62848); assay: Fluorescence polarization-based biochemical high throughput dose response screening assay to identify inhibitors of ADP-ribosylation factor GTPase activating protein 1 (ARFGAP1).; format: functional
# [8] = target: T1, Carboxy-terminal domain RNA polymerase II polypeptide A small phosphatase 1 (Homo sapiens, UniProt Q9GZU7); assay: inhibitors of CTDSP1, concentration-response testing, biochemical assay, absorbance-based, actives from ultra-high-throughput screening (AID 540297); format: functional
# T1 sequence (Q9GZU7 whole entry): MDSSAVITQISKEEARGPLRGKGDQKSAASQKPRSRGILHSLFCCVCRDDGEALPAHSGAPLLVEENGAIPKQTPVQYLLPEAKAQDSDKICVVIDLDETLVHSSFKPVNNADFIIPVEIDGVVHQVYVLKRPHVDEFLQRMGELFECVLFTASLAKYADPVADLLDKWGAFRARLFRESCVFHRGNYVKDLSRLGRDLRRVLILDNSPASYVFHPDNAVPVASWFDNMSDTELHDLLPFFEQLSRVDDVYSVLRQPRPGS
# [9] = target: DNA (cytosine-5)-methyltransferase 1 (Homo sapiens, UniProt P26358); assay: DNMT1 methyltransferase inhibitors, confirmation, biochemical, fluorescent molecular beacon (AID 602386); format: functional
# Estrogen receptor beta [10] = target: T2, Estrogen receptor beta (Homo sapiens, UniProt Q92731); assay: ERβ–SRC-3 coactivator interaction inhibitors, confirmation, orthogonal assay, biochemical, ELISA, streptavidin-HRP readout (AID 1060)
# Estrogen receptor beta [11] = target: T2, Estrogen receptor beta
# Estrogen receptor = target: T3, Estrogen receptor (Homo sapiens, UniProt P03372);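 note: potency for inhibiting coactivator peptide recruitment to the receptor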
# T3 sequence (P03372 whole entry): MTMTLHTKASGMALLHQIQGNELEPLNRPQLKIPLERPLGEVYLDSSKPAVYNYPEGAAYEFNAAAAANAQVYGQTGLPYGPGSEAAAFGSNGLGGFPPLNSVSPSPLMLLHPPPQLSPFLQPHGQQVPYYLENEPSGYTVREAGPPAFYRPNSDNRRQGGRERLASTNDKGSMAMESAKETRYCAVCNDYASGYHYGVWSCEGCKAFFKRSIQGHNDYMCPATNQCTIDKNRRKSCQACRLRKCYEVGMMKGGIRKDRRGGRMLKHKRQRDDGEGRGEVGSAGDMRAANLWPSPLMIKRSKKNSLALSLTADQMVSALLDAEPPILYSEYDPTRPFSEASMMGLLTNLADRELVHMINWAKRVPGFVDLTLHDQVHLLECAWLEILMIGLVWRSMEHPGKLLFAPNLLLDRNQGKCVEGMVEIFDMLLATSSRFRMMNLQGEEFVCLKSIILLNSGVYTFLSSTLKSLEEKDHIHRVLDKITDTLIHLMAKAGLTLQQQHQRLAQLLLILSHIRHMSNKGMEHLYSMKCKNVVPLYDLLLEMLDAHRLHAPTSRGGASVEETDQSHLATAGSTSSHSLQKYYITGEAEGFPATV
# [12] = target: T4, Sentrin-specific protease 1 (Homo sapiens, UniProt Q9P0U3); assay: potency of human SENP1 inhibitors, dose response, biochemical, kinetic FRET (AID 651697); format: functional; conditions: read-out: IC50_Mean
# [13] = target: T4, Sentrin-specific protease 1; assay: Dose response confirmation of small molecule inhibitors of the catalytic domain of the SUMO protease, SENP1 in a FRET assay.; format: functional; conditions: read-out: IC50_Mean
# [14] = target: T5, Rac GTPase-activating protein 1 (Homo sapiens, UniProt Q9H0H5); assay: MgcRacGAP GTPase-activating activity inhibitors, confirmation, biochemical, ADP Hunter fluorescence, primary and confirmatory (AID 624330); format: functional
# T5 sequence (Q9H0H5 whole entry): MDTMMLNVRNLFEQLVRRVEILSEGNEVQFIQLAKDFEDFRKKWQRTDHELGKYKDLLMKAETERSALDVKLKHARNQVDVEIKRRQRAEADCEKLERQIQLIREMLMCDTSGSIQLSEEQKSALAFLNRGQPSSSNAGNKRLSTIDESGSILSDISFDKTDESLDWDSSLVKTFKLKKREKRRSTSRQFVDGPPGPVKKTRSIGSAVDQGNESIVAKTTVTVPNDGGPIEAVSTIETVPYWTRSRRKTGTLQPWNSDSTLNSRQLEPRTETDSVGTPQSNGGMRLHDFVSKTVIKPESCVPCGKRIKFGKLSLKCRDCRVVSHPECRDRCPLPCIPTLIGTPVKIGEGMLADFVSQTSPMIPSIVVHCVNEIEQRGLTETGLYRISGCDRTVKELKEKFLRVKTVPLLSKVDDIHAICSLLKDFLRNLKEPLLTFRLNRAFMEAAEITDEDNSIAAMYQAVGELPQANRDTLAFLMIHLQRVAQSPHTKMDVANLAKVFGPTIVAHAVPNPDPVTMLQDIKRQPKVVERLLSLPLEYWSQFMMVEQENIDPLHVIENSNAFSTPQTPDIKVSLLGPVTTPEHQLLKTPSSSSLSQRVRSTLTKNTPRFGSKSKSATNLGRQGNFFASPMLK
# [15] = NIH-3T3 fibroblast cytotoxicity, dose response, cytotoxicity control, cell-based, fluorescence, Alamar Blue, secondary assay (AID 2327); format: functional;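 note: NIH-3T3 mouse fibroblasts cultured with fluconazole at 8 µg/mL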
# [16] = HeLa cell cytotoxicity, dose response, cytotoxicity control for MgcRacGAP inhibitor project (AID 624300); format: functional
# [17] = C. albicans growth with fluconazole, confirmation, fluorescence, retest (AID 2467); format: functional, cell-based
# [18] = target: T6, Apoptotic protease-activating factor 1 (Homo sapiens, UniProt O14727); assay: SAR analysis of small molecule Activators of Apaf-1 in a Fluorescent assay.; format: functional; conditions: read-out: EC50_Mean;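 note: caspase-3 cleavage of fluorogenic Rh110 DEVD substrate downstream of apoptosome activation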
# T6 sequence (O14727 whole entry): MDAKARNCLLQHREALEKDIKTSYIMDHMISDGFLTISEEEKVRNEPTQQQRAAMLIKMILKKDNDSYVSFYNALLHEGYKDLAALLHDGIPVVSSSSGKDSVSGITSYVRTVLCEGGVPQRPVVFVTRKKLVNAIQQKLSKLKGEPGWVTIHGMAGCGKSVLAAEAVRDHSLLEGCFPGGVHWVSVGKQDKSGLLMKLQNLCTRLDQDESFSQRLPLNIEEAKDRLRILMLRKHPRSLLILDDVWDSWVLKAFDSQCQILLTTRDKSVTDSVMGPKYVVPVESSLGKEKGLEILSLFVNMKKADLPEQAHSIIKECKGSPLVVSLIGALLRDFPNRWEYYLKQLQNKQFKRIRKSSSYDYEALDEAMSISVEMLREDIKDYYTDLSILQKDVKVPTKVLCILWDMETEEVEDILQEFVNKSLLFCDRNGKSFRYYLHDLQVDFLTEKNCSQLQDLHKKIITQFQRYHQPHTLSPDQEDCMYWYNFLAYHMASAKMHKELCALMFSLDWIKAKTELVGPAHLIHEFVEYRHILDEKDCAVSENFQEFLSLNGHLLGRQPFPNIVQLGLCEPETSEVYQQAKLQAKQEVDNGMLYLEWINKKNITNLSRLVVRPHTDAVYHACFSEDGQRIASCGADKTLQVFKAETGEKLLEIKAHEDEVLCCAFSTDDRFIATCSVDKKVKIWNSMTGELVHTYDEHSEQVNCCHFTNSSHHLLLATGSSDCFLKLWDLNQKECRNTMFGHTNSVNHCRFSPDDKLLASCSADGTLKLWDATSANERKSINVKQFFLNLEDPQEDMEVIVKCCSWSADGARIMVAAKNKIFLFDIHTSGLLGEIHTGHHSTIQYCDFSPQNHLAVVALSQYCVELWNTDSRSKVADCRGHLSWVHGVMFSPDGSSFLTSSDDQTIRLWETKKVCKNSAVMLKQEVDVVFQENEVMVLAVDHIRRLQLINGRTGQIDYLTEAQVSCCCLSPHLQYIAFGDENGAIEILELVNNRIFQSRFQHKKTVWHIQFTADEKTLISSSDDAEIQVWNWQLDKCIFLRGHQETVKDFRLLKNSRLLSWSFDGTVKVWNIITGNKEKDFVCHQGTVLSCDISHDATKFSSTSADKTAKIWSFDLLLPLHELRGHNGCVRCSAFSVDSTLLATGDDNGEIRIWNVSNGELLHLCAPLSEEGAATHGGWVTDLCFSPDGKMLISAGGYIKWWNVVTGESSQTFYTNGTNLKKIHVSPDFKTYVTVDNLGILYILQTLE
# [19] = target: T7, Tyrosine-protein phosphatase non-receptor type 22 (Homo sapiens, UniProt Q9Y2R2); assay: LYP phosphatase inhibition for selectivity, dose response, selectivity assay for LMPTP inhibitor project, biochemical, fluorescence, LYP catalytic domain (AID 652006); format: functional; conditions: read-out: IC50_Mean
# T7 sequence (Q9Y2R2 whole entry): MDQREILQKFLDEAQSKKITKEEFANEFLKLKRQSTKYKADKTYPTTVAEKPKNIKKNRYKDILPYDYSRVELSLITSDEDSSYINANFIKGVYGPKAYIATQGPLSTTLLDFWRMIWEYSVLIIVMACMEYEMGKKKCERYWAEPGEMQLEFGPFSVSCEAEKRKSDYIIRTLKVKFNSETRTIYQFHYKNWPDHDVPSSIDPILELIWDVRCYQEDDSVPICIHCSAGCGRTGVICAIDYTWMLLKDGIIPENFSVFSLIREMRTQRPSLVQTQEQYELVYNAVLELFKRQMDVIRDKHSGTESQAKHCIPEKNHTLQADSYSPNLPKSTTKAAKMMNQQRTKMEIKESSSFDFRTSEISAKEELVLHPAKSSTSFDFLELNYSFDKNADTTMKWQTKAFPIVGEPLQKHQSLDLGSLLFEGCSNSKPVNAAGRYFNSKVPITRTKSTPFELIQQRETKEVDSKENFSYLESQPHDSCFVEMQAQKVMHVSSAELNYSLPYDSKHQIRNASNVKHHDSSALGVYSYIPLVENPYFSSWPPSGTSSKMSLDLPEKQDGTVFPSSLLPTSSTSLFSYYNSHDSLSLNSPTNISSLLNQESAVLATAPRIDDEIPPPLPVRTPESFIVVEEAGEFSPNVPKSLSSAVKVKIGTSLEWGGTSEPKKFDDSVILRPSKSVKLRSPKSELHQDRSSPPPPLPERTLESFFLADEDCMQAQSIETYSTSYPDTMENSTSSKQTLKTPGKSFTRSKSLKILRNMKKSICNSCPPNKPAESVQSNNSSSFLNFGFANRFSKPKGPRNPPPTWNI
# Albumin = Albumin (Bos taurus, UniProt P02769); assay: Counterscreen for inhibitors of T-cell receptor (TCR)-CD3 interaction: Fluorescence-based biochemical high throughput dose response assay to identify inhibitors of T-cell receptor (TCR)-CD3 interaction using a TAMRA-labeled BSA probe.; format: functional
# [20] = target: T8, Low molecular weight phosphotyrosine protein phosphatase (Homo sapiens, UniProt P24666); format: functional; conditions: read-out: IC50_Mean
# T8 sequence (P24666 whole entry): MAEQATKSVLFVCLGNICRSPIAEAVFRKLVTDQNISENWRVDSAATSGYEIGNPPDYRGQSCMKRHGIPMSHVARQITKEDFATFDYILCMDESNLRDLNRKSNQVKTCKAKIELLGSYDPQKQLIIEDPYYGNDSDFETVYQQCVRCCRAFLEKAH
# [21] = target: T8, Low molecular weight phosphotyrosine protein phosphatase; format: functional; conditions: read-out: IC50_Mean; remark: listed apart in the source
# T4 sequence (Q9P0U3 whole entry, the tested form may be a part): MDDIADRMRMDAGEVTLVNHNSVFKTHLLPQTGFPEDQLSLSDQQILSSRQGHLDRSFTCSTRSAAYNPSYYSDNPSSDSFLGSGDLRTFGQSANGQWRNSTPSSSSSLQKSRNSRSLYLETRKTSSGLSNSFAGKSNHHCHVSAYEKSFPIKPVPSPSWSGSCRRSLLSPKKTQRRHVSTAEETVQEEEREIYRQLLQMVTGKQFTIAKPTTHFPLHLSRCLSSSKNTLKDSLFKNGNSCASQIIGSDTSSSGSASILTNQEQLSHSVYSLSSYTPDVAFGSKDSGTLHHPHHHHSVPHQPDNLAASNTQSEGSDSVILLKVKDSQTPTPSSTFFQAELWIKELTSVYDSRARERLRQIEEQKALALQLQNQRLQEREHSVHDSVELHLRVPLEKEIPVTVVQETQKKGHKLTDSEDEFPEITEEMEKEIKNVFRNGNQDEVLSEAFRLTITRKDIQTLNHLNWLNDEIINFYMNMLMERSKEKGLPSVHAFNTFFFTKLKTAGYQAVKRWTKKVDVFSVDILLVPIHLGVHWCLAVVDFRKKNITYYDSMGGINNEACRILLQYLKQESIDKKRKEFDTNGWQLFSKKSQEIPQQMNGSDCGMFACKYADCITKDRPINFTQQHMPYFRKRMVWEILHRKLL
# T2 sequence (Q92731 whole entry): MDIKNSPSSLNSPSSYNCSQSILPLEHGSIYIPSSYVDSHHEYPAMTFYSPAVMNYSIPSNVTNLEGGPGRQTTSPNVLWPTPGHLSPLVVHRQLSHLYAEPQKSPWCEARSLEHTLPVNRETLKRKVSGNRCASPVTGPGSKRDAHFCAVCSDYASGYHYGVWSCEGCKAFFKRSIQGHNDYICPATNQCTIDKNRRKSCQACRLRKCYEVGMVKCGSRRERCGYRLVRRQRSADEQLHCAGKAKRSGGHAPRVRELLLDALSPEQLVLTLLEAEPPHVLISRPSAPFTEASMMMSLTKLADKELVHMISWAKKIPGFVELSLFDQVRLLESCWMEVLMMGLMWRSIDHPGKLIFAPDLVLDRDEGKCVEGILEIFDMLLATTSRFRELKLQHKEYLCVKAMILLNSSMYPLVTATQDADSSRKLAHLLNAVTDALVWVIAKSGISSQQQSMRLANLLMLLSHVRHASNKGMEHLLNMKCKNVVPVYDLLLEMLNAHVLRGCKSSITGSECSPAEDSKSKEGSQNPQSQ
# Chain of Long-chain-fatty-acid--AMP ligase FadD28 (P9WQ59 whole entry): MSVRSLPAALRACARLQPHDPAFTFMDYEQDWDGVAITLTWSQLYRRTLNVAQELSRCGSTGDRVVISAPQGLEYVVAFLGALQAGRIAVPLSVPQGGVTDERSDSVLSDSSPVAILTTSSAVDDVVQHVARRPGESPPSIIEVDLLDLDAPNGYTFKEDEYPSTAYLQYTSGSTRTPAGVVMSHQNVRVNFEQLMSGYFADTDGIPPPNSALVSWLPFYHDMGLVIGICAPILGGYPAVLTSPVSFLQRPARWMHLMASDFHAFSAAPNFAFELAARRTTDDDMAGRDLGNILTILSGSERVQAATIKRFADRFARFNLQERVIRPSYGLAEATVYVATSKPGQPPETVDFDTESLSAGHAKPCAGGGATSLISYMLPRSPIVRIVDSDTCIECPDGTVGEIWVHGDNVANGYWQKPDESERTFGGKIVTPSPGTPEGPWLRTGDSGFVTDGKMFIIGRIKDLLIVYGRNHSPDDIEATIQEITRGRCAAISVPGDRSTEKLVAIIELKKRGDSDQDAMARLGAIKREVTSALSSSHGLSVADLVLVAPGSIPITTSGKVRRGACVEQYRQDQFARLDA
# Chain of DNA (cytosine-5)-methyltransferase 1 (P26358 whole entry): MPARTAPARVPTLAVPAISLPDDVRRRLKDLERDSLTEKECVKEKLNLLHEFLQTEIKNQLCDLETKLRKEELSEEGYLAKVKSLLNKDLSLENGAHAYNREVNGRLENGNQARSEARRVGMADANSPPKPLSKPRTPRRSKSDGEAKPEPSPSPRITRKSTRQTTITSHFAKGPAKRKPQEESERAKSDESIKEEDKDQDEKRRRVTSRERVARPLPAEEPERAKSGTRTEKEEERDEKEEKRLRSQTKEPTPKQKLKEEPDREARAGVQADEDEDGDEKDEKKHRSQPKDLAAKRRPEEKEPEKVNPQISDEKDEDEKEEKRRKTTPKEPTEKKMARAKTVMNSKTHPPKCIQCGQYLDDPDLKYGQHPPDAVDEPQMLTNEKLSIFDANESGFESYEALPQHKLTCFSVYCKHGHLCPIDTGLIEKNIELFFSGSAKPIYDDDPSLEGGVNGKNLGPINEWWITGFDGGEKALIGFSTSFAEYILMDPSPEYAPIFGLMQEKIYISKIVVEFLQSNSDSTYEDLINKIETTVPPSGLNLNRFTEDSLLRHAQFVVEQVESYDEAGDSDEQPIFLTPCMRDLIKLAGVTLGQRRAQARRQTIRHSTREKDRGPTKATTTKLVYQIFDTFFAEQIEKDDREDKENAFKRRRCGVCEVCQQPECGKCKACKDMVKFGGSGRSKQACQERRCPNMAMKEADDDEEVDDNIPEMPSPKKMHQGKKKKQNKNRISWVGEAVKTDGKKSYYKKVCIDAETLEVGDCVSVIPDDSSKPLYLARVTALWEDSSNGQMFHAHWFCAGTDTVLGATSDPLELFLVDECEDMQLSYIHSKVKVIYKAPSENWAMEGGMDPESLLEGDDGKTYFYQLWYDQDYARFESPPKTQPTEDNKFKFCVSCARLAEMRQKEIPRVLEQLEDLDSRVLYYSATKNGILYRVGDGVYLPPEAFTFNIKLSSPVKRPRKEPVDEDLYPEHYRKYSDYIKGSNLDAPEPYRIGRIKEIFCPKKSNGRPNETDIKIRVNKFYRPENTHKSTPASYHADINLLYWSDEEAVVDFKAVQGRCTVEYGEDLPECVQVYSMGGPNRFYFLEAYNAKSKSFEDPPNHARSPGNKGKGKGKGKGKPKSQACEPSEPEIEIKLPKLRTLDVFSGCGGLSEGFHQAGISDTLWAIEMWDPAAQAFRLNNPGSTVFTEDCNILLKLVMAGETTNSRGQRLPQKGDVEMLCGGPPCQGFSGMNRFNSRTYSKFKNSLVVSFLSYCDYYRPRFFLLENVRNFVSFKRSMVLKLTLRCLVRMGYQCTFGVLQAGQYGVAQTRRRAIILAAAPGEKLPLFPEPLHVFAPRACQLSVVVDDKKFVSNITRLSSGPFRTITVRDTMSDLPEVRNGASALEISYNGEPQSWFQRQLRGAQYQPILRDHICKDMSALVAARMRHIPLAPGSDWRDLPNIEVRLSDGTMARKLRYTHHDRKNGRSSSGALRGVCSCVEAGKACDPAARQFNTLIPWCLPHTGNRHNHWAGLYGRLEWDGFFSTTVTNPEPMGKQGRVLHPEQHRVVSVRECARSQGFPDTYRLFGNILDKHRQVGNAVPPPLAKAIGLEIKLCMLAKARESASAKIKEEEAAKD
# Chain of ADP-ribosylation factor GTPase-activating protein 1 (Q62848 whole entry, the tested form may be a part): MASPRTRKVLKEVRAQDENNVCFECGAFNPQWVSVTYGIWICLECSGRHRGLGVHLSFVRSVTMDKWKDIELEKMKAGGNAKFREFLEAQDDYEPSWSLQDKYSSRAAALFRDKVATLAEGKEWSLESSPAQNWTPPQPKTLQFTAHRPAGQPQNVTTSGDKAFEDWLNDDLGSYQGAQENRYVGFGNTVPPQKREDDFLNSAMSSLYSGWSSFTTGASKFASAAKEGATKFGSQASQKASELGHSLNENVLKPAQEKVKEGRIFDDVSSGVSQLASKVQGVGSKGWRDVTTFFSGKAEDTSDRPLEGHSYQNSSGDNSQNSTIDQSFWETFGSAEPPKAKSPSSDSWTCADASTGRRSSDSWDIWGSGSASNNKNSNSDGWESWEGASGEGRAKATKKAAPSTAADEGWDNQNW
# Chain of Albumin (P02769 whole entry): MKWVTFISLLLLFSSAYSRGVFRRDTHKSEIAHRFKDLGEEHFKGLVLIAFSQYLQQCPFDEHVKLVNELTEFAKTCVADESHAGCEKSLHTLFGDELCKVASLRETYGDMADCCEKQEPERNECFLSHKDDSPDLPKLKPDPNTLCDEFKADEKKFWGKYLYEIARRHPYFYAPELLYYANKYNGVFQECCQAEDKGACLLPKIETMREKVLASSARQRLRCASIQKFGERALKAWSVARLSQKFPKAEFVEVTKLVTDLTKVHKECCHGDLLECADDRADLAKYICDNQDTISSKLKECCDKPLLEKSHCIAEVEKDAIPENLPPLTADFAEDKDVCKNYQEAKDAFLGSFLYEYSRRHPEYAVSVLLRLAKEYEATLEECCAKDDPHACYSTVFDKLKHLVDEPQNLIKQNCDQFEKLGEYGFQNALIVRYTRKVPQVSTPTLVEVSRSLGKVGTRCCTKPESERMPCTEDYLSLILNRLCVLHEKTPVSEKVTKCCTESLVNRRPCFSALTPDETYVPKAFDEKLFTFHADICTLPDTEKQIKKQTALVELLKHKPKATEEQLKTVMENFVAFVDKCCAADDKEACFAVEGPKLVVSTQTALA
# Chain of Nonstructural protein 1 (Q194T2 whole entry): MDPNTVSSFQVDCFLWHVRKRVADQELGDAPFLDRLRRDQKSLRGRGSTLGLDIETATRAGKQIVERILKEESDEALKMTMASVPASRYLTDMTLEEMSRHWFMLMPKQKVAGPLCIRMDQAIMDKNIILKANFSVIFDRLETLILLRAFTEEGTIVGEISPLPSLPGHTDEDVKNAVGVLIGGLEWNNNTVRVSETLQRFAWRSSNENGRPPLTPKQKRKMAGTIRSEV
# Chain of Protein S100-A4 (P26447 whole entry): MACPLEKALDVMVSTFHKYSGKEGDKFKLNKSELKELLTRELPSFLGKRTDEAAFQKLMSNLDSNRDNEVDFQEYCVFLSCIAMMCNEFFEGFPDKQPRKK
structure (smiles),measurement,setting,value
CN1/C(=C\C=C2/SC(=S)NC2=O)C(C)(C)c2ccccc21,AC50,Protein S100-A4,0.819 µM (active)
same,IC50,Nonstructural protein 1,38.8 µM (active)
same,AC50,INS1,2.87 µM (active)
same,AC50,[1],38.6 µM (active)
same,AC50,[2],1.42 µM (active)
same,EC50,[3],0.981 µM (active)
same,AC50,[4],2.6 µM (active)
same,EC50,[5],7.49 µM (active)
CCc1cccc2c(C(=O)CSc3nncn3-c3ccc(OC)cc3)c[nH]c12,AC50,[6],> 100 µM (inactive)
Cc1ccc2nc3c(O)n(CC(=O)Nc4ccccc4N4CCN(C)CC4)ncc-3c2c1,IC50,[7],74 µM (inactive)
Cc1ccnc(NS(=O)(=O)c2ccc(NC(=O)Cc3cccs3)cc2)n1,IC50,[8],4.2 µM (active)
same,IC50,[9],9.16 µM (active)
same,IC50,Estrogen receptor beta [10],> 109 µM (not active)
same,IC50,Estrogen receptor beta [11],3.09 µM (active)
same,IC50,Estrogen receptor,12.2 µM (active)
Cc1ccc(-n2cc(-c3ccc([N+](=O)[O-])cc3)[nH]c2=S)c(C)c1,IC50,[12],54.1 µM (inactive)
same,IC50,[13],17.2 µM (active)
COc1cc(/C=C(\C#N)c2nc3ccccc3[nH]2)ccc1O,IC50,[14],15.9 µM (active)
same,EC50,[15],49.9 µM (active)
same,CC50,[16],99.9 µM (active)
same,EC50,[17],1.41 µM (active)
CCOc1ccccc1NC(=O)CCS(=O)(=O)c1cc2c(cc1Br)CCN2C(=O)CC,EC50,[18],> 100 µM (inactive)
O=C1C(=Cc2cn(-c3ccccc3)nc2-c2ccc(OCc3ccccc3)cc2)SC(=S)N1CCS(=O)(=O)O,IC50,[19],16.1 µM (active)
same,IC50,Albumin,> 94.2 µM (inactive)
same,IC50,[20],7.03 µM (active)
same,IC50,[21],7.75 µM (active)
